Key:
T cells = test: CD40L expression of CA2 regulated CD40L constructs in T cells by FACS (dose response, time course); format: cell-based; settings: 24 hours
From the text: CD40L constructs regulated by Carbonic anhydrase DDs were generated and cloned into lentiviral vectors. Purified T cells were thawed and cultured with aCD3 aCD28 Dynabeads (in the ratio of 3 beads to 1 T cell).
The constructs were transduced in T cells the next day. […]

[1] = Plasma concentration of acetazolamide after single and repeated oral doses; format: in vivo, mice; settings: oral 200 mg/kg, up to 100 hr
NIH3T3 cells = test: Dose response of saturation library constructs to Acetazolamide or Celecoxib, GFP MFI by FACS; format: cell-based; settings: Acetazolamide vs Celecoxib, 24 hours
From the text: The MFI values obtained with Acetazolamide were much higher than the MFIs obtained with Celecoxib treatment.

human primary T cells = test: IL15-dependent expansion: T cell numbers and CD4/CD8 ratio by flow cytometry; format: cell-based; settings: continuous Acetazolamide in culture, 10 days
Description: To test IL15-dependent expansion, beads were removed on day 10 and cells were washed. […] The T cell numbers (Table 30) and the change in CD4/CD8 ratio (Table 31) were determined by flow cytometry.

[2] = system: Activated T cells from human donor; test: Cell surface CAR expression of CA2 regulated CAR constructs (CD19-Fc staining); format: cell-based; settings: T cells, 10 μM ligand overnight, day 7 and 9
Description: CA2 DD described herein were operably linked to CARs to generate tunable CAR constructs. Activated T cells from human donor were transduced with 10 μL of lentivirus for indicated constructs. […] Cell surface CAR expression was detected the following day by staining the cells with 10 ug/mL CD19-Fc followed by an anti-human-BV421 conjugated secondary antibody. Histograms were plotted from a live cell gate. Similar experiments were also performed at day 8 and the cells were harvested at day 9. The data are shown in Table 20 as percentage CAR positive cells. The stabilization ratio was also calculated and is included in Table 20 as SR.
Activated T cells from human donor were transduced with 10 μL of lentivirus for indicated constructs. […] Cell surface CAR expression was detected the following day by staining the cells with 10 ug/mL CD19-Fc followed by an anti-human-BV421 conjugated secondary antibody. The percent of ligand induced CAR+ cells are plotted from a live cell gate relative to vehicle treated negative control cells.

[3] = Body weights after repeated daily doses of acetazolamide
Description: Body weights were measured for up to 12 days post daily repeated doses on days 0-4 and 8-11 (data not shown).
Dose responsiveness of OT-002175 was tested by measuring total flux in mice receiving repeated ligand dosing for up to 32 days post tumor implant (data not shown).

[4] = CD4+ T cells with OT-001990, Acetazolamide 0.01 μM
[5] = CD4+ T cells with OT-001990, Acetazolamide 0.2 μM
[6] = CD4+ T cells with OT-001990, Acetazolamide 0.8 μM
[7] = CD4+ T cells with OT-001990, Acetazolamide 3.1 μM
[8] = CD4+ T cells with OT-001990, Acetazolamide 12.5 μM
[9] = CD4+ T cells with OT-001990, Acetazolamide 50 μM
[10] = CD8+ T cells with OT-001990, Acetazolamide 0.01 μM
[11] = CD8+ T cells with OT-001990, Acetazolamide 0.05 μM
[12] = CD8+ T cells with OT-001990, Acetazolamide 0.2 μM
[13] = CD8+ T cells with OT-001990, Acetazolamide 0.8 μM
[14] = CD8+ T cells with OT-001990, Acetazolamide 3.1 μM
[15] = CD8+ T cells with OT-001990, Acetazolamide 12.5 μM
[16] = CD8+ T cells with OT-001990, Acetazolamide 50 μM

## CC(=O)Nc1nnc(S(N)(=O)=O)s1 [Acetazolamide, reference compound]
T cells; [4]
  CD40L MFI: 112
  Percentage CD40L positive cells: 4.13%
T cells; CD4+ T cells with OT-001990, Acetazolamide 0.05 μM
  Percentage CD40L positive cells: 5.44%
T cells; [5]
  CD40L MFI: 185
  Percentage CD40L positive cells: 10.3%
T cells; [6]
  CD40L MFI: 481
  Percentage CD40L positive cells: 45.6%
T cells; [7]
  CD40L MFI: 840
  Percentage CD40L positive cells: 69.3%
T cells; [8]
  CD40L MFI: 2783
  Percentage CD40L positive cells: 90.3%
T cells; [9]
  CD40L MFI: 3728
  Percentage CD40L positive cells: 91.1%
T cells; [10]
  CD40L MFI: 105
  Percentage CD40L positive cells: 0.59%
T cells; [11]
  CD40L MFI: 104
  Percentage CD40L positive cells: 0.44%
T cells; [12]
  CD40L MFI: 136
  Percentage CD40L positive cells: 1.48%
T cells; [13]
  CD40L MFI: 307
  Percentage CD40L positive cells: 25.2%
T cells; [14]
  CD40L MFI: 380
  Percentage CD40L positive cells: 41.2%
T cells; [15]
  CD40L MFI: 1599
  Percentage CD40L positive cells: 77.2%
T cells; [16]
  CD40L MFI: 2184
  Percentage CD40L positive cells: 80.7%
[1]
  daily 1 hr Cmax values after repeated doses: do not elevate daily 1 hr Cmax values
NIH3T3 cells
  MFI values obtained with one ligand compared with the other: much higher
Human primary T cells
  T cell expansion: 3.6 fold
[2]
  CAR regulation compared between ligands: Greater CAR regulation
[3]; 30, 100 and 200 mg/kg acetazolamide
  effects on body weight in efficacy study: comparable effects on body weight
[3]; oral 200 mg/kg, daily repeated doses on days 0-4 and 8-11
  body weight changes from dosing: begin to level off by the end of the first week of daily doses

Source: patent US20230026259A1, “CA2 COMPOSITIONS AND METHODS FOR TUNABLE REGULATION” (Obsidian Therapeutics, Inc., priority 2019, published 2023)
